Measured values published in patent US11999794B2, “Human mesothelin chimeric antigen receptors and uses thereof” (Novartis AG, priority 2013, dated 2024).
Marks after values point to notes of the source that are not given here.

Key:
Type in all cases: in vivo, human
[1] = Adverse event and safety assessment of RAD001 in elderly volunteers; settings: for Incidence of treatment-related AE: Blood cholesterol increased / Incidence of treatment-related AE: Conjunctivitis / Incidence of treatment-related AE: Diarrhea / Incidence of treatment-related AE: Dry mouth / Incidence of treatment-related AE: Dyspepsia / Incidence of treatment-related AE: Erythema / Incidence of treatment-related AE: Fatigue / Incidence of treatment-related AE: Headache / Incidence of treatment-related AE: Insomnia / Incidence of treatment-related AE: Limb discomfort / Incidence of treatment-related AE: Low density lipoprotein increased / Incidence of treatment-related AE: Mouth ulceration / Incidence of treatment-related AE: Mucosal inflammation / Incidence of treatment-related AE: Neutropenia / Incidence of treatment-related AE: Oral pain / Incidence of treatment-related AE: Paresthesia oral / Incidence of treatment-related AE: Pruritus / Incidence of treatment-related AE: Stomatitis / Incidence of treatment-related AE: Thrombocytopenia / Incidence of treatment-related AE: Tongue ulceration / Incidence of treatment-related AE: Urinary tract infection / Treatment-related AEs: Patients with AE(s) / Treatment-related AEs: Total AE(s): N = 53
Procedure: Adverse event assessment and blood collection for hematologic and biochemical safety assessments were performed during study visits. Adverse event information was also collected in diaries that subjects filled out at home during the 6 weeks they were on study drug. Data on all adverse events were collected from the time of informed consent until 30 days after the last study visit. Events were classified by the investigators as mild, moderate or severe.

H3N2 A/Victoria/210/2009 = experiment: Hemagglutination inhibition titers and seroconversion; settings: for Percent of subjects with seroconversion to influenza 4 weeks after vaccination: H3N2; for GMT ratio, A/H3N2: GMT at week 4 post vaccination/GMT at baseline
Procedure: (§1) The trial was observer-blind because the placebo in the RAD001 0.5 mg daily and 20 mg weekly cohorts differed slightly from the RAD001 tablets in those cohorts. […] The treatment duration for all cohorts was 6 weeks during which time subjects underwent safety evaluations in the clinic every 2 weeks. After subjects had been dosed for 4 weeks, RAD001 steady state levels were measured pre-dose and at one hour post dose. After completing the 6 week course of study drug, subjects were given a 2 week drug free break to reverse any possible RAD001-induced immunosuppression, and then were given a 2012 seasonal influenza vaccination (Agrippal®, Novartis Vaccines and Diagnostics, Siena, Italy) containing the strains H1N1 A/California/07/2009, H3N2 A/Victoria/210/2009, B/Brisbane/60/2008. Four weeks after influenza vaccination, subjects had serum collected for influenza titer measurements. Antibody titers to the 3 influenza vaccine strains as well as to 2 heterologous strains (A/H1N1 strain A/New Jersey/8/76 and A/H3N2 strain A/Victoria/361/11) were measured by standard hemagglutination inhibition assay (Kendal, A P et al. (1982) Concepts and procedures for laboratory-based influenza surveillance. Atlanta: Centers for Disease Control and Prevention B17-B35). Levels of IgG and IgM specific for the A/H1N1/California/07/2009 were measured in serum samples taken before and 4 weeks after influenza vaccination as described previously (Spensieri, F. et al. (2013) Proc. Natl. Acad. Sci. USA 110:14330-14335). Results were expressed as fluorescence intensity.
(§2) The ability of RAD001 to improve immune function in elderly volunteers was evaluated by measuring the serologic response to the 2012 seasonal influenza vaccine. The hemagglutination inhibition (HI) geometric mean titers (GMT) to each of the 3 influenza vaccine strains at baseline and 4 weeks after influenza vaccination are provided in Table 10. The primary analysis variable was the HI GMT ratio (4 weeks post vaccination/baseline). […] This endpoint was chosen because a 1.2-fold increase in the influenza GMT ratio induced by the MF-59 vaccine adjuvant was associated with a decrease in influenza illness (Iob, A et al. (2005) Epidemiol Infect 133:687-693).
(§3) Rates of seroconversion 4 weeks after influenza vaccination were also evaluated. Seroconversion was defined as the change from a negative pre-vaccination titer (i.e., HI titer <1:10) to post-vaccination HI titer ≥1:40 or at least 4-fold increase from a non-negative (≥1:10) pre-vaccination HI titer.

B/Brisbane/60/2008 = experiment: as above; settings: for Percent of subjects with seroconversion to influenza 4 weeks after vaccination: B; for GMT ratio, B: GMT at week 4 post vaccination/GMT at baseline
Procedure: as §1, §2, §3

[2] = system: H1N1 A/California/07/2009; experiment: as above; settings: for Percent of subjects with seroconversion to influenza 4 weeks after vaccination: H1N1; for GMT ratio, A/H1N1: GMT at week 4 post vaccination/GMT at baseline
Procedure: as §1, §2, §3

[3] = Intention to Treat Population, 0.5 mg, N = 48
[4] = Intention to Treat Population, 5 mg, N = 49
[5] = Intention to Treat Population, 20 mg, N = 48
[6] = Subjects with Baseline Titers <=40, 0.5 mg
[7] = Subjects with Baseline Titers <=40, 5 mg
[8] = Subjects with Baseline Titers <=40, 20 mg

## CO[C@H]1C[C@@H]2CC[C@@H](C)[C@@](O)(O2)C(=O)C(=O)N2CCCC[C@H]2C(=O)O[C@H]([C@H](C)C[C@@H]2CC[C@@H](OCCO)[C@H](OC)C2)CC(=O)[C@H](C)/C=C(\C)[C@@H](O)[C@@H](OC)C(=O)[C@H](C)C[C@H](C)/C=C/C=C/C=C/1C [RAD001, (1R,9S,12S,15R,16E,18R,19R,21R,23 S,24E,26E,28E,30S,32S,35R)-1,18-dihydroxy-12-{(1R)-2-[(1 S,3R,4R)-4-(2-hydroxyethoxy)-3-methoxycyclohexyl]-1-methylethyl}-19,30-dimethoxy-15,17,21,23,29,35-hexamethyl-11,36-dioxa-4-aza-tricyclo[30.3.1.04,9]hexatriaconta-16,24,26,28-tetraene-2,3,10,14,20-pentaone]
[1]; 0.5 mg daily
  Incidence of treatment-related AE: Blood cholesterol increased: 2 (3.8%) n (%)
  Incidence of treatment-related AE: Conjunctivitis: 0 n (%)
  Incidence of treatment-related AE: Diarrhea: 1 (1.9%) n (%)
  Incidence of treatment-related AE: Dry mouth: 0 n (%)
  Incidence of treatment-related AE: Dyspepsia: 0 n (%)
  Incidence of treatment-related AE: Erythema: 0 n (%)
  Incidence of treatment-related AE: Fatigue: 0 n (%)
  Incidence of treatment-related AE: Headache: 0 n (%)
  Incidence of treatment-related AE: Insomnia: 1 (1.9%) n (%)
  Incidence of treatment-related AE: Limb discomfort: 0 n (%)
  Incidence of treatment-related AE: Low density lipoprotein increased: 2 (3.8%) n (%)
  Incidence of treatment-related AE: Mouth ulceration: 6 (11.3%) n (%)
  Incidence of treatment-related AE: Mucosal inflammation: 0 n (%)
  Incidence of treatment-related AE: Neutropenia: 0 n (%)
  Incidence of treatment-related AE: Oral pain: 0 n (%)
  Incidence of treatment-related AE: Paresthesia oral: 2 (3.8%) n (%)
  Incidence of treatment-related AE: Pruritus: 0 n (%)
  Incidence of treatment-related AE: Stomatitis: 0 n (%)
  Incidence of treatment-related AE: Thrombocytopenia: 0 n (%)
  Incidence of treatment-related AE: Tongue ulceration: 3 (5.7%) n (%)
  Incidence of treatment-related AE: Urinary tract infection: 0 n (%)
  Treatment-related AEs: Patients with AE(s): 22 (41.5%) n (%)
  Treatment-related AEs: Total AE(s): 35
[1]; 5 mg weekly
  Incidence of treatment-related AE: Blood cholesterol increased: 2 (3.8%) n (%)
  Incidence of treatment-related AE: Conjunctivitis: 2 (3.8%) n (%)
  Incidence of treatment-related AE: Diarrhea: 4 (7.5%) n (%)
  Incidence of treatment-related AE: Dry mouth: 0 n (%)
  Incidence of treatment-related AE: Dyspepsia: 3 (5.7%) n (%)
  Incidence of treatment-related AE: Erythema: 2 (3.8%) n (%)
  Incidence of treatment-related AE: Fatigue: 2 (3.8%) n (%)
  Incidence of treatment-related AE: Headache: 2 (3.8%) n (%)
  Incidence of treatment-related AE: Insomnia: 2 (3.8%) n (%)
  Incidence of treatment-related AE: Limb discomfort: 2 (3.8%) n (%)
  Incidence of treatment-related AE: Low density lipoprotein increased: 1 (1.9%) n (%)
  Incidence of treatment-related AE: Mouth ulceration: 2 (3.8%) n (%)
  Incidence of treatment-related AE: Mucosal inflammation: 0 n (%)
  Incidence of treatment-related AE: Neutropenia: 0 n (%)
  Incidence of treatment-related AE: Oral pain: 2 (3.8%) n (%)
  Incidence of treatment-related AE: Paresthesia oral: 0 n (%)
  Incidence of treatment-related AE: Pruritus: 2 (3.8%) n (%)
  Incidence of treatment-related AE: Stomatitis: 0 n (%)
  Incidence of treatment-related AE: Thrombocytopenia: 0 n (%)
  Incidence of treatment-related AE: Tongue ulceration: 1 (1.9%) n (%)
  Incidence of treatment-related AE: Urinary tract infection: 0 n (%)
  Treatment-related AEs: Patients with AE(s): 20 (37.7%) n (%)
  Treatment-related AEs: Total AE(s): 46
[1]; 20 mg weekly
  Incidence of treatment-related AE: Blood cholesterol increased: 2 (3.8%) n (%)
  Incidence of treatment-related AE: Conjunctivitis: 0 n (%)
  Incidence of treatment-related AE: Diarrhea: 1 (1.9%) n (%)
  Incidence of treatment-related AE: Dry mouth: 2 (3.8%) n (%)
  Incidence of treatment-related AE: Dyspepsia: 2 (3.8%) n (%)
  Incidence of treatment-related AE: Erythema: 0 n (%)
  Incidence of treatment-related AE: Fatigue: 4 (7.5%) n (%)
  Incidence of treatment-related AE: Headache: 9 (17.0%) n (%)
  Incidence of treatment-related AE: Insomnia: 1 (1.9%) n (%)
  Incidence of treatment-related AE: Limb discomfort: 0 n (%)
  Incidence of treatment-related AE: Low density lipoprotein increased: 2 (3.8%) n (%)
  Incidence of treatment-related AE: Mouth ulceration: 9 (17.0%) n (%)
  Incidence of treatment-related AE: Mucosal inflammation: 2 (3.8%) n (%)
  Incidence of treatment-related AE: Neutropenia: 3 (5.7%) n (%)
  Incidence of treatment-related AE: Oral pain: 1 (1.9%) n (%)
  Incidence of treatment-related AE: Paresthesia oral: 0 n (%)
  Incidence of treatment-related AE: Pruritus: 1 (1.9%) n (%)
  Incidence of treatment-related AE: Stomatitis: 2 (3.8%) n (%)
  Incidence of treatment-related AE: Thrombocytopenia: 2 (3.8%) n (%)
  Incidence of treatment-related AE: Tongue ulceration: 0 n (%)
  Incidence of treatment-related AE: Urinary tract infection: 2 (3.8%) n (%)
  Treatment-related AEs: Patients with AE(s): 27 (50.9%) n (%)
  Treatment-related AEs: Total AE(s): 109
[1]; human, in vivo
  deaths during the study: No deaths
[1]; majority of mild severity
  most common related AE: mouth ulcer
[1]; mouth ulcers, 20 mg weekly
  severe AEs assessed as related: Only one severe AE
[1]; particularly 0.5 mg daily and 5 mg weekly
  tolerability: well tolerated
[1]; three subjects, four SAEs
  serious adverse events (SAEs), relation to drug: assessed as unrelated to RAD001
H3N2 A/Victoria/210/2009; [3]
  Percent of subjects with seroconversion to influenza 4 weeks after vaccination: 27%
H3N2 A/Victoria/210/2009; [4]
  Percent of subjects with seroconversion to influenza 4 weeks after vaccination: 24%
H3N2 A/Victoria/210/2009; [5]
  Percent of subjects with seroconversion to influenza 4 weeks after vaccination: 25%
H3N2 A/Victoria/210/2009; [6]
  Percent of subjects with seroconversion to influenza 4 weeks after vaccination: 64%
H3N2 A/Victoria/210/2009; [7]
  Percent of subjects with seroconversion to influenza 4 weeks after vaccination: 53%
H3N2 A/Victoria/210/2009; [8]
  Percent of subjects with seroconversion to influenza 4 weeks after vaccination: 71%
H3N2 A/Victoria/210/2009; RAD001 5 mg weekly, N = 49
  GMT ratio, A/H3N2: 2.0
H3N2 A/Victoria/210/2009; RAD001 20 mg weekly, N = 49
  GMT ratio, A/H3N2: 2.1
B/Brisbane/60/2008; [3]
  Percent of subjects with seroconversion to influenza 4 weeks after vaccination: 27%
B/Brisbane/60/2008; [4]
  Percent of subjects with seroconversion to influenza 4 weeks after vaccination: 22%
B/Brisbane/60/2008; [5]
  Percent of subjects with seroconversion to influenza 4 weeks after vaccination: 19%
B/Brisbane/60/2008; [6]
  Percent of subjects with seroconversion to influenza 4 weeks after vaccination: 40* %
B/Brisbane/60/2008; [7]
  Percent of subjects with seroconversion to influenza 4 weeks after vaccination: 33%
B/Brisbane/60/2008; [8]
  Percent of subjects with seroconversion to influenza 4 weeks after vaccination: 28%
B/Brisbane/60/2008; RAD001 5 mg weekly, N = 49
  GMT ratio, B: 2.2
B/Brisbane/60/2008; RAD001 20 mg weekly, N = 49
  GMT ratio, B: 2.1
[2]; [3]
  Percent of subjects with seroconversion to influenza 4 weeks after vaccination: 27%
[2]; [4]
  Percent of subjects with seroconversion to influenza 4 weeks after vaccination: 27%
[2]; [5]
  Percent of subjects with seroconversion to influenza 4 weeks after vaccination: 17%
[2]; [6]
  Percent of subjects with seroconversion to influenza 4 weeks after vaccination: 42%
[2]; [7]
  Percent of subjects with seroconversion to influenza 4 weeks after vaccination: 45%
[2]; [8]
  Percent of subjects with seroconversion to influenza 4 weeks after vaccination: 36%
[2]; RAD001 5 mg weekly, N = 49
  GMT ratio, A/H1N1: 2.5
[2]; RAD001 20 mg weekly, N = 49
  GMT ratio, A/H1N1: 1.8
